What was measured:
[1] = test system: Mycobacterium tuberculosis Erdman (autoluminescent); assay: Einf, fitted maximum growth inhibition of three-drug combination (fraction); higher = stronger maximal inhibition
Description: (§1)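 DiaMOND equipotent three-drug combination dose responses (10 doses, 1.5- or 2-fold spacing, centred on IC90) against autoluminescent M. tuberculosis Erdman in 8 in vitro models. Read-out is OD600, or luminescence for the intracellular and dormancy models, normalised to untreated wells. Hill-fit Einf, AUC25 and GRinf are potency metrics; FIC50 and FIC90 are total Loewe fractional inhibitory concentrations as log2 (negative = synergy).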

[2] = test system: Mycobacterium tuberculosis Erdman (autoluminescent); assay: AUC25, normalised area under dose response up to IC25 (three-drug combination) (fraction (0-1)); higher = more potent at low dose
Description: as §1

[3] = test system: Mycobacterium tuberculosis Erdman (autoluminescent); assay: total FIC90 (Loewe) at 90% inhibition, three-drug combination (log2); higher = more antagonistic
Description: as §1

[4] = test system: Mycobacterium tuberculosis Erdman (autoluminescent); assay: GRinf, maximum normalised growth rate inhibition (three-drug combination) (unitless (-1 to 1)); higher = less effect (negative = killing)
Description: as §1

[5] = test system: Mycobacterium tuberculosis Erdman (autoluminescent); assay: total FIC50 (Loewe) at 50% inhibition, three-drug combination (log2); higher = more antagonistic
Description: as §1

CC[C@@H](CO)NCCN[C@@H](CC)CO [ethambutol] + COc1c(N2C[C@@H]3CCCN[C@@H]3C2)c(F)cc2c(=O)c(C(=O)O)cn(C3CC3)c12 [moxifloxacin] + CO[C@H]1/C=C/O[C@@]2(C)Oc3c(C)c(O)c4c(O)c(c(/C=N/N5CCN(C6CCCC6)CC5)c(O)c4c3C2=O)NC(=O)/C(C)=C\C=C\[C@H](C)[C@H](O)[C@@H](C)[C@@H](O)[C@@H](C)[C@H](OC(C)=O)[C@@H]1C [rifapentine]
Conditions | AUC25, [2] | Einf, [1] | GRinf, [4] | total FIC50, [5] | total FIC90, [3]
in vitro model: acidic pH 5.7, time point: constant (~7 days, model-specific) | 0.071 | 0.869 | 0.0546 | 0.231 | –
in vitro model: acidic pH 5.7, time point: terminal (~4-5 doublings, model-specific) | 0.0263 | 0.959 | -0.0323 | 0.724 | 0.104
in vitro model: intracellular J774, time point: constant = terminal | – | 0.975 | -0.351 | – | -1.53

Conditions | AUC25, [2] | Einf, [1] | GRinf, [4] | total FIC50, [5] | total FIC90, [3]
in vitro model: butyrate, time point: constant (~7 days, model-specific) | 0.0619 | 0.916 | 0.00267 | 0.508 | –
in vitro model: butyrate, time point: terminal (~4-5 doublings, model-specific) | 0.0506 | 0.961 | -0.00309 | 0.467 | -0.223
in vitro model: cholesterol 0.05 mM, time point: constant (~7 days, model-specific) | 0.104 | 0.635 | -0.31 | 0.788 | –
in vitro model: cholesterol 0.05 mM, time point: terminal (~4-5 doublings, model-specific) | 0.0642 | 0.834 | 0.155 | 1.57 | –
in vitro model: cholesterol-high 0.2 mM, time point: constant (~7 days, model-specific) | 0.0293 | 0.932 | -0.315 | 1.07 | –
in vitro model: cholesterol-high 0.2 mM, time point: terminal (~4-5 doublings, model-specific) | 0.0405 | 1 | -0.787 | 1.22 | 0.977
in vitro model: dormancy (butyrate + nitrate, low O2), time point: constant (~7 days, model-specific) | 0.0738 | 0.842 | 0.339 | 0.142 | –
in vitro model: dormancy (butyrate + nitrate, low O2), time point: terminal (~4-5 doublings, model-specific) | 0.116 | 0.993 | -0.177 | 0.309 | 0.994
in vitro model: standard 7H9 glycerol, time point: constant = terminal | 0.044 | 0.906 | 0.0179 | 0.47 | 0.148
in vitro model: valerate, time point: constant (~7 days, model-specific) | 0.0523 | 0.893 | -0.0774 | 0.833 | –
in vitro model: valerate, time point: terminal (~4-5 doublings, model-specific) | 0.0364 | 0.942 | -0.0136 | 0.843 | -0.33

NNC(=O)c1ccncc1 [isoniazid] + CC(=O)NC[C@H]1CN(c2ccc(N3CCOCC3)c(F)c2)C(=O)O1 [linezolid] + COc1c(N2C[C@@H]3CCCN[C@@H]3C2)c(F)cc2c(=O)c(C(=O)O)cn(C3CC3)c12 [moxifloxacin]
Conditions | AUC25, [2] | Einf, [1] | GRinf, [4] | total FIC50, [5] | total FIC90, [3]
in vitro model: acidic pH 5.7, time point: constant (~7 days, model-specific) | 0.109 | 0.747 | -0.275 | 0.122 | –
in vitro model: acidic pH 5.7, time point: terminal (~4-5 doublings, model-specific) | 0.0728 | 0.923 | -0.258 | 1.49 | 0.715
in vitro model: intracellular J774, time point: constant = terminal | – | 0.893 | -0.0263 | – | 0.67

Conditions | AUC25, [2] | Einf, [1] | GRinf, [4] | total FIC50, [5] | total FIC90, [3]
in vitro model: butyrate, time point: constant (~7 days, model-specific) | 0.086 | 0.917 | 0.00606 | 0.711 | 0.963
in vitro model: butyrate, time point: terminal (~4-5 doublings, model-specific) | 0.0553 | 0.956 | 0.0163 | 0.753 | 0.721
in vitro model: cholesterol 0.05 mM, time point: constant (~7 days, model-specific) | 0.149 | 0.654 | -0.302 | 0.796 | –
in vitro model: cholesterol 0.05 mM, time point: terminal (~4-5 doublings, model-specific) | 0.15 | 0.909 | -0.444 | 4.95 | 0.24
in vitro model: cholesterol-high 0.2 mM, time point: constant (~7 days, model-specific) | 0.114 | 0.933 | -0.214 | 0.427 | 1.53
in vitro model: cholesterol-high 0.2 mM, time point: terminal (~4-5 doublings, model-specific) | 0.105 | 1 | -0.842 | 0.413 | 0.848
in vitro model: dormancy (butyrate + nitrate, low O2), time point: constant (~7 days, model-specific) | 0.0474 | 0.851 | 0.271 | 1.12 | 0.548
in vitro model: dormancy (butyrate + nitrate, low O2), time point: terminal (~4-5 doublings, model-specific) | 0.0316 | 0.974 | -0.0773 | 1 | 0.562
in vitro model: standard 7H9 glycerol, time point: constant = terminal | 0.0712 | 0.97 | -0.21 | 0.644 | 0.854
in vitro model: valerate, time point: constant (~7 days, model-specific) | 0.104 | 0.888 | -0.0253 | 0.337 | –
in vitro model: valerate, time point: terminal (~4-5 doublings, model-specific) | 0.0614 | 0.935 | -0.00928 | 0.575 | 0.805

COc1nc2ccc(Br)cc2cc1[C@@H](c1ccccc1)[C@@](O)(CCN(C)C)c1cccc2ccccc12 [bedaquiline] + NNC(=O)c1ccncc1 [isoniazid] + CO[C@H]1/C=C/O[C@@]2(C)Oc3c(C)c(O)c4c(O)c(c(/C=N/N5CCN(C)CC5)c(O)c4c3C2=O)NC(=O)/C(C)=C\C=C\[C@H](C)[C@H](O)[C@@H](C)[C@@H](O)[C@@H](C)[C@H](OC(C)=O)[C@@H]1C [rifampicin]
Conditions | AUC25, [2] | Einf, [1] | GRinf, [4] | total FIC50, [5] | total FIC90, [3]
in vitro model: acidic pH 5.7, time point: constant (~7 days, model-specific) | 0.108 | 0.955 | -0.45 | 0.796 | –
in vitro model: acidic pH 5.7, time point: terminal (~4-5 doublings, model-specific) | 0.089 | 0.99 | -0.282 | 0.663 | 0.706
in vitro model: intracellular J774, time point: constant = terminal | – | 0.965 | -0.25 | – | 0.354

Conditions | AUC25, [2] | Einf, [1] | GRinf, [4] | total FIC50, [5] | total FIC90, [3]
in vitro model: butyrate, time point: constant (~7 days, model-specific) | 0.102 | 0.946 | -0.0859 | 0.575 | 0.602
in vitro model: butyrate, time point: terminal (~4-5 doublings, model-specific) | 0.0879 | 0.977 | -0.052 | 0.331 | 0.56
in vitro model: cholesterol 0.05 mM, time point: constant (~7 days, model-specific) | 0.0808 | 0.689 | -0.157 | -0.117 | –
in vitro model: cholesterol 0.05 mM, time point: terminal (~4-5 doublings, model-specific) | 0.0785 | 0.918 | -0.164 | 0.536 | -0.254
in vitro model: cholesterol-high 0.2 mM, time point: constant (~7 days, model-specific) | 0.0768 | 0.978 | -0.43 | 0.606 | –
in vitro model: cholesterol-high 0.2 mM, time point: terminal (~4-5 doublings, model-specific) | 0.0551 | 0.998 | -0.606 | 0.868 | 0.598
in vitro model: dormancy (butyrate + nitrate, low O2), time point: constant (~7 days, model-specific) | 0.0706 | 0.908 | 0.222 | 0.635 | 0.621
in vitro model: dormancy (butyrate + nitrate, low O2), time point: terminal (~4-5 doublings, model-specific) | 0.0374 | 0.987 | -0.16 | 0.347 | 0.0703
in vitro model: standard 7H9 glycerol, time point: constant = terminal | 0.0722 | 0.939 | -0.0733 | 0.27 | 0.0151
in vitro model: valerate, time point: constant (~7 days, model-specific) | 0.0578 | 0.912 | -0.0907 | 1.13 | –
in vitro model: valerate, time point: terminal (~4-5 doublings, model-specific) | 0.0274 | 0.963 | -0.0942 | 1.33 | 1.01

Reference: the supplement of paper PMC8617591
